This is an account of results in patent US9920017B2, “Heterocyclic compounds as pesticides” (BAYER CROPSCIENCE AKTIENGESELLSCHAFT, priority 2014, dated 2018).

Read-outs that look alike come from different tables or passages of the source.

The nature of series [1]: Determination of log P values by HPLC (reversed-phase C18). The series is classed as physicochemical. Particulars: for chromatographic logP: reversed-phase C18 HPLC column; for logP (neutral): compounds of formula (IIa-1), R3 hydrogen. The method, then: 1) Description of Method for Determination of the Log P Values ([…]) The log P values given in the table were determined in accordance with EEC Directive 79/831 Annex V.A8 by HPLC (High Performance Liquid Chromatography) using a reversed-phase column (C 18). Temperature: 55° C. […] Gradient: from 10% eluent A/90% eluent B to 95% eluent A/5% eluent B in 4.25 min. Calibration was effected with unbranched alkan-2-ones (having 3 to 16 carbon atoms) with known log P values (log P values determined on the basis of the retention times by linear interpolation between two successive alkanones). The lambda max values were determined in the maxima of the chromatographic signals using the UV spectra from 200 nm to 400 nm.

Another series has as its system Meloidogyne incognita. Briefly: Meloidogyne incognita test (MELGIN). The series is classed as in vivo. The conditions noted are these: 20 ppm; lettuce; after 14 days. The method, then: Meloidogyne incognita Test (MELGIN) Solvent: 125.0 parts by weight of acetone To produce a suitable active ingredient formulation, 1 part by weight of active ingredient is mixed with the stated amount of solvent and the concentrate is diluted with water to the desired concentration. Vessels are filled with sand, active ingredient solution, an egg/larvae suspension of the southern root-knot nematode (Meloidogyne incognita) and lettuce seeds. The lettuce seeds germinate and the plants develop. The galls develop on the roots. After 14 days, the nematicidal efficacy in % is determined by the formation of galls. 100% means that no galls were found; 0% means that the number of galls on the treated plants corresponds to the untreated control.

The mark [2] stands for this setting: HPLC, reversed-phase C18, 55° C., final compounds table.
The mark [3] stands for this setting: HPLC-MS, preparation examples, read-out: log P (neutral).
Where [4] appears, read: pH 3.4, HPLC-MS, preparation examples, read-out: log P.

On to `O=C(Nc1ncn(-c2ccccc2Cl)n1)c1ccccc1Br` [Compound I-1-4], for which the “log P neutral” value in series [1] (setting [2]) came out at 1.97. Further, in the series with Meloidogyne incognita, the “nematicidal efficacy (formation of galls)” value (from here on “nematicidal efficacy”) turned out to be 90%. For `O=C(Nc1ncn(-c2ccccc2C(F)(F)F)n1)c1ccccc1C(F)(F)F` [Compound I-1-8] the same measures were 2.24 and 100%. For `O=C(Nc1ncn(-c2c(F)cccc2F)n1)c1ccccc1Br` [Compound I-1-12] the same measures were 1.80 and 90%.

`O=C(Nc1ncn(-c2c(F)cccc2F)n1)c1ccccc1Cl` [Compound I-1-13, 2-Chloro-N-[1-(2,6-difluorophenyl)-1H-1,2,4-triazol-3-yl]benzamide]: in series [1] (setting [3]), the chromatographic logP is 1.73. The “nematicidal efficacy” value in the series with Meloidogyne incognita is 100%. For `Cc1ccccc1C(=O)Nc1ncn(-c2c(F)cccc2F)n1` [Compound I-1-14], the “log P neutral” value in series [1] (setting [2]) is 1.72. Also, the “nematicidal efficacy” value in the series with Meloidogyne incognita came to 100%. For `CCc1ccccc1C(=O)Nc1ncn(-c2c(F)cccc2F)n1` [Compound I-1-15], the chromatographic logP in series [1] (setting [3]) was found to be 2.05. The “nematicidal efficacy” value in the series with Meloidogyne incognita worked out at 100%. As to `O=C(Nc1ncn(-c2c(F)cccc2F)n1)c1cc(F)ccc1C(F)(F)F` [Compound I-1-19], the “log P neutral” value in series [1] (setting [2]) worked out at 2.09. The “nematicidal efficacy” value in the series on Meloidogyne incognita was determined as 100%. For `O=C(Nc1ncn(-c2c(F)cccc2F)n1)c1ccccc1[N+](=O)[O-]` [Compound I-1-22] the same measures were 1.54 and 90%. With `O=C(Nc1ncn(-c2c(F)cccc2C(F)(F)F)n1)c1ccccc1Cl` [Compound I-1-27], the “log P neutral” value in series [1] (setting [2]) was 2.06. Further, the “nematicidal efficacy” value in the series on Meloidogyne incognita was determined as 90%.

As for `CCc1ccccc1C(=O)Nc1ncn(-c2c(F)cccc2C(F)(F)F)n1` [Compound I-1-29], in series [1] (setting [2]), the “log P neutral” value was determined as 2.39. For the same compound, the “nematicidal efficacy” value in the series with Meloidogyne incognita is reported as 100%.

`O=C(Nc1ncn(-c2c(F)cccc2Br)n1)c1ccccc1Cl` [Compound I-1-31]: in series [1] (setting [2]), the “log P neutral” value is listed as 1.95. In addition, the “nematicidal efficacy” value with Meloidogyne incognita amounted to 100%. Taken in the same sequence, the figures for `O=C(Nc1ncn(-c2c(F)cccc2Br)n1)c1ccccc1I` [Compound I-1-32] were 2.08 and 100%.

For `O=C(Nc1ncn(-c2c(F)cccc2Cl)n1)c1ccccc1I` [Compound I-1-35], the “log P neutral” value in series [1] (setting [2]) stood at 2.04. In the series on Meloidogyne incognita, the “nematicidal efficacy” value worked out at 100%. `Cc1cccc(Cl)c1-n1cnc(NC(=O)c2ccccc2C(F)(F)F)n1` [Compound I-1-40]: in series [1] (setting [2]), the “log P neutral” value amounted to 2.26. The “nematicidal efficacy” value in the series with Meloidogyne incognita is 90%. In the case of `CCc1cccc(Cl)c1-n1cnc(NC(=O)c2ccccc2C(F)(F)F)n1` [Compound I-1-42], the “log P neutral” value in series [1] (setting [2]) was 2.55. Moreover, the “nematicidal efficacy” value in the series on Meloidogyne incognita is on record as 90%. Taken in the same sequence, the figures for `O=C(Nc1ncn(-c2c(Cl)cccc2Cl)n1)c1ccccc1Br` [Compound I-1-45] were 2.09 and 100%. Taken in the same sequence, the figures for `O=C(Nc1ncn(-c2c(Cl)cccc2Cl)n1)c1ccccc1Cl` [Compound I-1-46] were 2.03 and 90%. For `O=C(Nc1ncn(-c2c(F)ccc(F)c2F)n1)c1ccccc1Cl` [Compound I-1-58] the same measures were 1.91 and 100%. Take `CCc1ccccc1C(=O)Nc1ncn(-c2c(F)ccc(F)c2F)n1` [Compound I-1-60]: in series [1] (setting [2]), the “log P neutral” value turned out to be 2.21. The “nematicidal efficacy” value in the series on Meloidogyne incognita is reported as 100%. `O=C(Nc1ncn(-c2c(F)cc(F)cc2F)n1)c1ccccc1Cl` [Compound I-1-62]: the “log P neutral” value in series [1] (setting [2]) turned out to be 1.85. Further, in the series with Meloidogyne incognita, the “nematicidal efficacy” value is 100%. Turning to `CCc1ccccc1C(=O)Nc1ncn(-c2c(F)cc(F)cc2F)n1` [Compound I-1-64], the “log P neutral” value in series [1] (setting [2]) was 2.14. Besides, the “nematicidal efficacy” value with Meloidogyne incognita was 100%.

Take `O=C(Nc1ncn(-c2c(F)c(F)c(F)c(F)c2F)n1)c1ccccc1I` [Compound I-1-67]: the “log P neutral” value in series [1] (setting [2]) came to 2.43. Moreover, the “nematicidal efficacy” value with Meloidogyne incognita worked out at 90%. Taken in the same sequence, the figures for `O=C(Nc1ncn(-c2ccccc2I)n1)c1ccccc1C(F)(F)F` [Compound I-1-75] were 2.20 and 90%. Regarding `O=C(Nc1ncn(-c2c(Br)cccc2Br)n1)c1ccccc1C(F)(F)F` [Compound I-1-80], the “log P neutral” value in series [1] (setting [2]) is listed as 2.32. The “nematicidal efficacy” value in the series on Meloidogyne incognita came out at 100%. Taken in the same sequence, the figures for `O=C(Nc1ncn(-c2c(Br)cc(F)cc2Br)n1)c1ccccc1C(F)(F)F` [Compound I-1-87] were 2.46 and 90%. With `O=C(Nc1ncn(-c2ncc(F)cc2F)n1)c1ccccc1C(F)(F)F` [Compound I-1-89, N-[1-(3,5-Difluoropyridin-2-yl)-1H-1,2,4-triazol-3-yl]-2-(trifluoromethyl)benzamide], the chromatographic logP in series [1] (setting [4]) turned out to be 1.76; in series [1] (HPLC, reversed-phase C18, 55° C., final compounds table, read-out: log P neutral) it was 1.76. Besides, the “nematicidal efficacy” value in the series with Meloidogyne incognita is listed as 100%. With `CCO/C=N/c1noc(-c2ccccc2)n1` [Ethyl [5-phenyl-1,2,4-oxadiazol-3-yl]imidoformate], the chromatographic logP in series [1] (setting [3]) came out at 2.87. For `Nc1ncn(-c2c(Br)cc(F)cc2Br)n1` [IIa-1 R1=Br R2m=6-Br-4-F], in series [1], the “logP (neutral)” value amounted to 1.35. Still for that read-out and setting: the same measure for `Nc1ncn(-c2c(Br)cccc2Br)n1` [IIa-1 R1=Br R2m=6-Br]: 1.2. The same measure, in the same setting: with `Nc1ncn(-c2ccccc2Br)n1` [IIa-1 R1=Br R2m=—] the figure was 1.03; with `Nc1ncn(-c2ccccc2C(F)(F)F)n1` [IIa-1 R1=CF3 R2m=—], 1.16. The same measure, in the same setting: the same measure for `COc1cccc(C)c1-n1cnc(N)n1` [IIa-1 R1=CH3 R2m=6-OCH3]: 0.98; for `Nc1ncn(-c2cccc(Cl)c2Cl)n1` [IIa-1 R1=Cl R2m=3-Cl]: 1.41; for `Nc1ncn(-c2ccc(Cl)cc2Cl)n1` [IIa-1 R1=Cl R2m=4-Cl]: 1.48. Turning to `Nc1ncn(-c2cc(Cl)ccc2Cl)n1` [IIa-1 R1=Cl R2m=5% Cl:], the “logP (neutral)” value in series [1] was 1.44. On the same count and under the same terms, with `Nc1ncn(-c2c(Cl)cccc2Cl)n1` [IIa-1 R1=Cl R2m=6% Cl:] the figure was 0.94; with `CCc1cccc(Cl)c1-n1cnc(N)n1` [IIa-1 R1=Cl R2m=6-C2H5], 1.12. Same read-out and setting: with `Cc1cccc(Cl)c1-n1cnc(N)n1` [IIa-1 R1=Cl R2m=6-CH3] the figure was 1.12; with `Nc1ncn(-c2c(F)cccc2Cl)n1` [IIa-1 R1=Cl R2m=6-F], 0.86.

With `Nc1ncn(-c2ccccc2Cl)n1` [IIa-1 R1=Cl R2m=—], the “logP (neutral)” value in series [1] came out at 0.96. Still for that read-out and setting: with `Nc1ncn(-c2c(F)c(F)c(F)c(F)c2F)n1` [IIa-1 R1=F R2m=3,4,5,6-F4] the figure was 1.31; with `Nc1ncn(-c2c(F)ccc(F)c2F)n1` [IIa-1 R1=F R2m=3,6-F2-phenyl], 0.84.

Regarding `Nc1ncn(-c2c(F)cc(F)cc2F)n1` [IIa-1 R1=F R2m=4,6-F2], the “logP (neutral)” value in series [1] stood at 0.82. Same read-out and setting: with `Cc1cccc(F)c1-n1cnc(N)n1` [IIa-1 R1=F R2m=6-CH3] the figure was 1.03.

In the case of `Nc1ncn(-c2c(F)cccc2I)n1` [IIa-1 R1=F R2m=6-I], in series [1], the “logP (neutral)” value worked out at 1.07. On the same count and under the same terms, the same measure for `Nc1ncn(-c2ccccc2F)n1` [IIa-1 R1=F R2m=—]: 0.86; for `Nc1ncn(-c2ccccc2I)n1` [IIa-1 R1=I R2m=—]: 1.13.

Consider `Nc1ncn(-c2ccccc2OC(F)(F)F)n1` [IIa-1 R1=OCF3 R2m=—], for which the “logP (neutral)” value in series [1] stood at 1.44.

Turning to `CO/C(=N\C#N)c1ccccc1` [Methyl N-cyanobenzenecarboximidoate], the chromatographic logP in series [1] (setting [3]) was 1.83.

With `O=C(Nc1nn[nH]n1)c1ccccc1C(F)(F)F` [N-(2H-Tetrazol-5-yl)-2-(trifluoromethyl)benzamide], in series [1] (setting [4]), the chromatographic logP worked out at 1.17. In the case of `O=C(Nc1ncn(-c2c(F)cccc2F)n1)c1ccccc1` [N-[1-(2,6-Difluorophenyl)-1H-1,2,4-triazol-3-yl]benzamide], the chromatographic logP in series [1] (setting [3]) turned out to be 1.59. On to `O=C(Nc1ncn(-c2c(F)cccc2Br)n1)c1ccccc1` [N-[1-(2-Bromo-6-fluorophenyl)-1H-1,2,4-triazol-3-yl]benzamide], for which the chromatographic logP in series [1] (setting [3]) was determined as 1.79. Turning to `O=C(Nc1ncn(-c2ncc(F)cc2F)n1)c1ccccc1` [N-[1-(3,5-Difluoropyridin-2-yl)-1H-1,2,4-triazol-3-yl]benzamide], in series [1] (setting [3]), the chromatographic logP was 1.36. Same read-out and setting: the same measure for `O=C(Nc1ncn(-c2c(F)cccc2C(F)(F)F)n1)c1ccccc1` [N-{1-[2-Fluoro-6-(trifluoromethyl)phenyl]-1H-1,2,4-triazol-3-yl}benzamide]: 1.95.
